# Test results taken from paper PMC10714399, “Open Source Antibiotics: Simple Diarylimidazoles Are Potent against Methicillin-Resistant Staphylococcus aureus” (ACS Infectious Diseases, 2023).
# Test system: S. aureus ATCC 25923 (methicillin-susceptible)
# Experiment: In vitro antibacterial activity, MIC (UCL), MSSA
# Assay type: cell-based, Staphylococcus aureus
# Conditions: not given
# Method: (§1) Staphylococcus aureus NCTC 13373 (mecA-positive; methicillin-resistant, NCTC 13373) was supplied by the National Collection of Type Cultures (NCTC), Public Health England, United Kingdom. Other organisms, S. aureus ATCC 25923 (methicillin-susceptible) and Enterococcus faecalis ATCC 51299 (vanA-positive; vancomycin-resistant), were obtained from the American Type Culture Collection (ATCC) via LGC Standards, UK. A suspension of each organism was prepared from an overnight plate culture (tryptone soya agar) in phosphate-buffered saline (PBS) and adjusted to an absorbance reading at 600 nm of 0.1, which is approximately equivalent to 1 × 10^8 colony-forming units (CFU) per mL. The cultures were further diluted 1:100 in isosensitest broth (Oxoid, United Kingdom) before 100 μL was used to inoculate each well of a 96-well plate that contained diluted samples of the OSA series. Compounds were evaluated over a 2-fold dilution range from 32 to 0.03 μg/mL. Stocks of the samples were prepared in 100% DMSO at […] before being diluted in isosenstitest broth. The highest concentration of DMSO present was 2%, which has been previously shown not to inhibit the growth of the microorganisms (data not shown). […] Vancomycin was used as a quality control compound.
row,MSSA MIC [µg/mL],SMILES
1,4,Cc1ccc2nc(-c3ccccn3)c(NCc3ccccc3)n2c1 [compound 842]
2,4,COc1ccn2c(Nc3ccccc3F)c(-c3ccccn3)nc2c1 [compound 851]
3,> 32,COc1cccc(-c2nc3ccccn3c2N(CC(C)C)c2ccc(F)cc2)n1 [compound 1025]
4,> 32,CC(C)CN(c1ccc(F)cc1)c1c(-c2ccccn2)nc2ccc(S(C)(=O)=O)cn12 [compound 1037]
5,> 32,N#Cc1ccc(-c2nc(-c3ccccn3)c[nH]2)cc1 [compound 1102]
6,> 32,N#Cc1ccc(-c2c(-c3ccccn3)nc3cccnn23)cc1 [compound 1103]
7,> 32,N#Cc1ccc(-c2c(-c3ccccn3)nc3ccccn23)cc1 [compound 1104]
8,> 32,N#Cc1ccc(-c2c(-c3ccccn3)nc3ncccn23)cc1 [compound 1105]
9,> 32,N#Cc1ccc(-c2c(-c3ccccn3)nc3cnccn23)cc1 [compound 1106]
10,> 32,N#Cc1ccc(-c2c(-c3ncccn3)nc3ccccn23)cc1 [compound 1107]

# Same assay, conditions: Staphylococcus aureus; read-out: MSSA MIC
row,MIC [µg/mL],SMILES
1,> 32,c1cnc(-c2nc3n(c2-c2ccc4occc4c2)CCC3)cn1 [compound 873]
2,> 32,CC(C)CN(c1ccc(F)cc1)c1c(-c2ccccn2)nc2cnccn12 [compound 1035]
3,32,CC(C)CN(c1ccc(F)cc1)c1c(-c2ccccn2)nc2cccnn12 [compound 1036]
4,8,CC(C)CN(c1ccc(F)cc1)c1c(-c2ccccn2)nc2ncccn12 [compound 1038]
5,> 32,CC(C)CN(c1ccc(F)cc1)c1c(-c2ccccn2)nc2ccncn12 [compound 1039]
6,> 32,CC(C)CN(Cc1c(-c2ccccn2)nc2ccccn12)c1ccc(F)cc1 [compound 1040]

# Same assay, conditions: Staphylococcus aureus; read-out: MSSA MIC (UCL)
row,MIC [µg/mL],SMILES
1,4,Cc1ccc2nc(-c3ccccn3)c(NCc3ccccc3)n2c1 [OSA_000842]
2,4,COc1ccn2c(Nc3ccccc3F)c(-c3ccccn3)nc2c1 [OSA_000851]
3,> 32,c1cnc(-c2nc3n(c2-c2ccc4occc4c2)CCC3)cn1 [OSA_000873]

# Test system: Enterococcus faecalis ATCC 51299 (vanA-positive; vancomycin-resistant)
# Experiment: In vitro antibacterial activity, MIC (UCL), VRE
# Assay type: cell-based
# Conditions: not given
# Method: as §1
row,VRE MIC [µg/mL],SMILES
1,> 32,COc1ccn2c(Nc3ccc(F)cn3)c(-c3ccccn3)nc2c1.O=CO [compound 839]
2,> 32,Cc1ccn2c(NC3CCCC3)c(-c3ccc(N(C)C)cc3)nc2c1 [compound 840]
3,16,Cc1ccc2nc(-c3ccccn3)c(Nc3ccc4c(c3)OCCO4)n2c1 [compound 841]
4,32,Cc1ccc2nc(-c3ccccn3)c(NCc3ccccc3)n2c1 [compound 842]
5,> 32,COc1ccn2c(Nc3cccc(F)c3)c(-c3cscn3)nc2c1.O=CO [compound 843]
6,> 32,CN(C)Cc1ccc2nc(-c3ccccn3)c(Nc3cccc(F)c3)n2c1 [compound 844]
7,> 32,c1ccn2c(NC3CCCC3)c(-c3nccs3)nc2c1 [compound 845]
8,> 32,Cc1ccn2c(Nc3ccc(F)cc3)c(-c3ccc(N(C)C)cc3)nc2c1 [compound 846]
9,> 32,COc1ccn2c(Nc3cccc(F)c3)c(-c3cn(C)cn3)nc2c1 [compound 848]
10,> 32,COc1ccc(-c2nc3ccc(C)cn3c2NCc2ccco2)cc1OC.Cl [compound 849]
11,> 32,c1ccc(-c2nc3ccccn3c2N2CCOCC2)nc1 [compound 850]
12,16,COc1ccn2c(Nc3ccccc3F)c(-c3ccccn3)nc2c1 [compound 851]
13,> 32,COCc1ccc2nc(-c3ccccn3)c(Nc3cccc(F)c3)n2c1 [compound 852]
14,> 32,COc1ccn2c(NCc3cn(C)cn3)c(-c3ccccn3)nc2c1.O=CO [compound 853]

# Same assay, conditions: read-out: VRE MIC
row,MIC [µg/mL],SMILES
1,> 32,c1cnc(-c2nc3n(c2-c2ccc4occc4c2)CCC3)cn1 [compound 873]

# Same assay, conditions: read-out: VRE MIC (UCL)
row,MIC [µg/mL],SMILES
1,32,Cc1ccc2nc(-c3ccccn3)c(NCc3ccccc3)n2c1 [OSA_000842]
2,16,COc1ccn2c(Nc3ccccc3F)c(-c3ccccn3)nc2c1 [OSA_000851]
3,> 32,c1cnc(-c2nc3n(c2-c2ccc4occc4c2)CCC3)cn1 [OSA_000873]

# Test system: Staphylococcus aureus NCTC 13373 (mecA-positive; methicillin-resistant)
# Experiment: In vitro antibacterial activity, MIC (UCL School of Pharmacy assay), MRSA
# Assay type: cell-based
# Conditions: not given
# Method: as §1
MRSA MIC [µg/mL],SMILES,"activity against MRSA, in words"
16,COc1ccn2c(Nc3ccc(F)cn3)c(-c3ccccn3)nc2c1.O=CO [compound 839],–
> 32,Cc1ccn2c(NC3CCCC3)c(-c3ccc(N(C)C)cc3)nc2c1 [compound 840],–
8,Cc1ccc2nc(-c3ccccn3)c(Nc3ccc4c(c3)OCCO4)n2c1 [compound 841],–
8,Cc1ccc2nc(-c3ccccn3)c(NCc3ccccc3)n2c1 [compound 842],–
> 32,COc1ccn2c(Nc3cccc(F)c3)c(-c3cscn3)nc2c1.O=CO [compound 843],–
> 32,CN(C)Cc1ccc2nc(-c3ccccn3)c(Nc3cccc(F)c3)n2c1 [compound 844],–
> 32,c1ccn2c(NC3CCCC3)c(-c3nccs3)nc2c1 [compound 845],–
> 32,Cc1ccn2c(Nc3ccc(F)cc3)c(-c3ccc(N(C)C)cc3)nc2c1 [compound 846],–
> 32,COc1ccn2c(Nc3cccc(F)c3)c(-c3cn(C)cn3)nc2c1 [compound 848],–
> 32,COc1ccc(-c2nc3ccc(C)cn3c2NCc2ccco2)cc1OC.Cl [compound 849],–
> 32,c1ccc(-c2nc3ccccn3c2N2CCOCC2)nc1 [compound 850],–
8,COc1ccn2c(Nc3ccccc3F)c(-c3ccccn3)nc2c1 [compound 851],–
> 32,COCc1ccc2nc(-c3ccccn3)c(Nc3cccc(F)c3)n2c1 [compound 852],–
> 32,COc1ccn2c(NCc3cn(C)cn3)c(-c3ccccn3)nc2c1.O=CO [compound 853],–
–,c1cnc(-c2nc3n(c2-c2ccc4occc4c2)CCC3)cn1 [compound 873],inactive
> 32,COc1cccc(-c2nc3ccccn3c2N(CC(C)C)c2ccc(F)cc2)n1 [compound 1025],–
> 32,CC(C)CN(c1ccc(F)cc1)c1c(-c2ccccn2)nc2ccc(S(C)(=O)=O)cn12 [compound 1037],–
> 32,N#Cc1ccc(-c2nc(-c3ccccn3)c[nH]2)cc1 [compound 1102],–
> 32,N#Cc1ccc(-c2c(-c3ccccn3)nc3cccnn23)cc1 [compound 1103],–
> 32,N#Cc1ccc(-c2c(-c3ccccn3)nc3ccccn23)cc1 [compound 1104],–
> 32,N#Cc1ccc(-c2c(-c3ccccn3)nc3ncccn23)cc1 [compound 1105],–
> 32,N#Cc1ccc(-c2c(-c3ccccn3)nc3cnccn23)cc1 [compound 1106],–
> 32,N#Cc1ccc(-c2c(-c3ncccn3)nc3ccccn23)cc1 [compound 1107],–

# Same assay, conditions: Staphylococcus aureus, UCL; read-out: MRSA MIC (UCL)
row,MIC [µg/mL],SMILES
1,8,Cc1ccc2nc(-c3ccccn3)c(NCc3ccccc3)n2c1 [OSA_000842]
2,8,COc1ccn2c(Nc3ccccc3F)c(-c3ccccn3)nc2c1 [OSA_000851]
3,> 32,c1cnc(-c2nc3n(c2-c2ccc4occc4c2)CCC3)cn1 [OSA_000873]

# Same assay, conditions: Staphylococcus aureus; read-out: MRSA MIC
row,MIC [µg/mL],SMILES
1,> 32,c1cnc(-c2nc3n(c2-c2ccc4occc4c2)CCC3)cn1 [compound 873]
2,> 32,CC(C)CN(c1ccc(F)cc1)c1c(-c2ccccn2)nc2cnccn12 [compound 1035]
3,32,CC(C)CN(c1ccc(F)cc1)c1c(-c2ccccn2)nc2cccnn12 [compound 1036]
4,6,CC(C)CN(c1ccc(F)cc1)c1c(-c2ccccn2)nc2ncccn12 [compound 1038]
5,> 32,CC(C)CN(c1ccc(F)cc1)c1c(-c2ccccn2)nc2ccncn12 [compound 1039]
6,32,CC(C)CN(Cc1c(-c2ccccn2)nc2ccccn12)c1ccc(F)cc1 [compound 1040]
